Patent publication EP2450458B1, “Novel microorganisms producing a thermostable lipase and their use” (Universiti Putra Malaysia (UPM), priority 2010, dated 2012)
“And” between values parts separate entries of the source, which are not always exact repeats. Identical values can stand only once.

Assays:
[1] = test system: purified recombinant ARM thermostable lipase; test: Lipase organic solvent-stability; type: biochemical, Geobacillus sp. strain ARM; conditions: solvent 30% v/v, 30 min at 30°C, 150 rpm; assay at 65°C
Procedure: Aliquots of the enzyme were incubated with the solvents (30%, v/v) for 30 min at 30°C with shaking at 150 rpm. […] The stability was expressed as the remaining lipolytic activity relative to that of the control (without solvent). The relative activity was measured at 65°C as described before.

[2] = values in parenthesis used to select the solvents; cited from earlier work
[3] = test system: purified recombinant ARM thermostable lipase; test: Effect of metal ions on lipase activity; type: biochemical, Geobacillus sp. strain ARM; conditions: pre-incubation 30 min at 30°C, assay at 65°C
Procedure: To determine the effects of metal ions on the lipase activity, the purified enzyme was pre-incubated for 30 min at 30°C with various metal ions. Two concentrations (1 and 5 mM) of each of the following ions were used: CO^2+, CU^2+, Mg^2+, Ni^2+, Mn^2+, Zn^2+ Fe^2+, Ca^2+, Sr^2+, K^+, Na^+, Rb^+ and Ag^+. All salts were dissolved in MOPS buffer (50 mM, pH 8.0) (Aslamkhan et al., 2002). The control contained no ion. The relative activity was measured at 65°C using olive oil (emulsified, 1:1 v/v, in 50 mM Tris-HCl buffer, pH 8.0) as substrate. Metal cations play different and important roles in influencing the structure and function of lipases (Gupta et al.., 2004a; Kim et al., 2005). The effect of different metal ions on the purified ARM lipase activity was studied (Figure 29). […] The Ca^2+-binding motif was not found in ARM lipase sequence.

[4] = test system: purified recombinant ARM thermostable lipase; test: Effect of inhibitors on lipase activity; type: biochemical, Geobacillus sp. strain ARM; conditions: pre-incubation 30 min at 30°C, assay at 65°C
Procedure: The control contained no inhibitor. The relative activity was measured at 65°C using olive oil (emulsified, 1:1 v/v, in 50 mM Tris-HCl buffer, pH 8.0) as substrate.

[5] = test system: purified recombinant ARM thermostable lipase; test: Effect of surfactants on lipase activity; type: biochemical, Geobacillus sp. strain ARM; conditions: pre-incubation 30 min at 30°C, assay at 65°C
Procedure: The effect of surfactants on the lipase activity was investigated by pre-incubating the purified enzyme for 30 min at 30°C in Tris-HCl buffer (50 mM, pH 8.0) containing 0.1 and 1% (v/v) of following surfactants (nonionic surfactants): Tween 20, Tween 40, Tween 80, Tween 85, Triton X-100, Triton B1958, Span 20. In the case of SDS (ionic surfactant) concentrations were 1 and 5 mM. The control contained no surfactant. The relative activity was measured at 65°C using olive oil (emulsified, 1:1 v/v, in 50 mM Tris-HCl buffer, pH 8.0) as substrate. The effects of various surfactants on the purified ARM lipase are depicted in Figure 30.

[6] = test system: purified recombinant ARM thermostable lipase; test: Effect of ionic liquids on lipase hydrolytic activity; type: biochemical, Geobacillus sp. strain ARM; conditions: 90% (v/v) ionic liquid, 0 min, without incubation; assay at 65°C
Procedure: (§1) Aliquots of the enzyme were suspended in 90% (v/v) of four different ionic liquids (ILs) properly. Then, the mixture of lipase and ILs was incubated for 0-90 min at 60°C with shaking at 150 rpm. The selected ILs were [Emim][BF4], [Emim][TfO], [Bmim][BF4] and […]. The thermostability was expressed as the remaining lipolytic activity relative to that of the control (without ILs) after incubation at high temperature. The residual activity was measured at 65°C as described before.

[7] = test system: purified recombinant ARM thermostable lipase; test: Effect of ionic liquids on lipase thermostability at 60°C; type: biochemical, Geobacillus sp. strain ARM; conditions: 90% (v/v) ionic liquid, 0-90 min at 60°C, 150 rpm; assay at 65°C
Procedure: as §1

1-butanol
effect on lipase activity/stability [1]: dramatically inhibited

1-propanol
effect on lipase activity/stability [1]: dramatically inhibited

CCCCCCCCCCO [1-decanol]
remaining lipolytic activity relative to the control (without solvent) [1]: 86%

CCCCCCCCCCCCO [1-dodecanol]
remaining lipolytic activity relative to the control (without solvent) [1]: more than 100%
log P [2]: 5

CCCCCCCCCCCCCCCC [1-hexadecane]
remaining lipolytic activity relative to the control (without solvent) [1]: 78%

CCCCCCCCO [1-octanol]
remaining lipolytic activity relative to the control (without solvent) [1]: more than 100%
log P [2]: 2.9

CCCCCCCCCCCO [1-undecanol]
remaining lipolytic activity relative to the control (without solvent) [1]: 74%
log P [2]: 4.6

CC(O)C(C)O (stereo not shown) [2,3-butanediol]
log P [2]: -0.92

CC(C)O [2-propanol]
effect on lipase activity/stability [1]: dramatically inhibited

[Ca+2] [Ca^2+]
effect on lipase activity ([3]; 1 and 5 mM ion): stimulated the lipase activity

C[S+](C)[O-] [DMSO]
remaining lipolytic activity relative to the control (without solvent) [1]: 62.5% and 62.4%

O=C(O)CN(CCN(CC(=O)O)CC(=O)O)CC(=O)O [EDTA, ethylene diamine tetra-acetic acid]
activation of the lipase ([4]; 1 mM): around 20%
activation of the lipase ([4]; 5 mM): more than 60%

CCCCCCCCCCCCOS(=O)(=O)[O-].[Na+] [SDS]
effect on lipase activity ([5]; 1 and 5 mM (ionic surfactant)): strongly inhibited

[Sr+2] [Sr^2+]
effect on lipase activity ([3]; 1 mM ion): stimulated the lipase activity

CCCCn1cc[n+](C)c1.F[B-](F)(F)F [[Bmim][BF4]]
effect on lipase activity [6]: decreased lipase activity

CCCCn1cc[n+](C)c1.F[P-](F)(F)(F)(F)F [[Bmim][PH6]]
lipase activity relative to the control (without ILs) [6]: up to 120%

CCn1cc[n+](C)c1.F[B-](F)(F)F [[Emim][BF4]]
effect on lipase thermostability [7]: significant effects on lipase thermostability enhancement
effect on lipase activity [6]: no significant effect

CCn1cc[n+](C)c1.O=S(=O)([O-])C(F)(F)F [[Emim][TfO]]
effect on lipase thermostability [7]: significant effects on lipase thermostability enhancement
lipase activity relative to the control (without ILs) [6]: up to 120%

CC(C)=O [acetone]
effect on lipase activity/stability [1]: dramatically inhibited
log P [2]: -0.208

CC#N [acetonitrile]
effect on lipase activity/stability [1]: dramatically inhibited
log P [2]: -0.394

c1ccccc1 [benzene]
remaining lipolytic activity relative to the control (without solvent) [1]: more than 100%

OCc1ccccc1 [bnzyl alcohol]
effect on lipase activity/stability [1]: dramatically inhibited

CCc1ccccc1 [ethylbenzene]
remaining lipolytic activity relative to the control (without solvent) [1]: 77%
log P [2]: 3.3

CCCCCCCCCCCCCCCCC [heptadecane]
remaining lipolytic activity relative to the control (without solvent) [1]: more than 100%
log P [2]: 8.69

CCCCCCC [heptan]
remaining lipolytic activity relative to the control (without solvent) [1]: more than 100%
log P [2]: 4.4

CC(C)CCO [iso-amyl alcohol]
effect on lipase activity/stability [1]: dramatically inhibited
log P [2]: 1.3

CC(C)CO [iso-butanol]
effect on lipase activity/stability [1]: dramatically inhibited
log P [2]: 0.79

CC(C)CC(C)(C)C [iso-octane]
remaining lipolytic activity relative to the control (without solvent) [1]: more than 100%
log P [2]: 4.5

CCCCCCCCCCCCCCC [n-pentadecane]
remaining lipolytic activity relative to the control (without solvent) [1]: more than 100%
log P [2]: 7.71

CCCCCCCCCCCCCC [n-tetradecane]
remaining lipolytic activity relative to the control (without solvent) [1]: more than 100%
log P [2]: 7

Cc1ccccc1C [o-xylene]
remaining lipolytic activity relative to the control (without solvent) [1]: more than 100%

Cc1ccccc1 [toluene]
remaining lipolytic activity relative to the control (without solvent) [1]: more than 100%

Span 20
effect on lipase activity ([5]; 0.1 and 1% (v/v) surfactant): not affected

Triton X-100
increase in lipase activity ([5]; 1% surfactant): 20%

hexanes
remaining lipolytic activity relative to the control (without solvent) [1]: more than 100%
log P [2]: 3.6
